From patent publication US7601717B2, “Pterin analogs” (BioMarin Pharmaceutical Inc., priority 2008, dated 2009)
Counter-ions that a name gives are not always drawn.

Experiments:
[1] = HPLC with ECD and fluorescence detection of biopterins in plasma of dosed monkeys; format: in vivo, cynomolgus monkeys; settings: plasma 2 hours post-administration, 2% MeOH mobile phase, FIG. 16
Procedure: An HPLC method using Electrochemical Detection (ECD) and Fluorescence (FL) detection is advantageous as it allows for the measurement of each of the discrete biopterin compounds (BH4, BH2 and B) as well as analog, such as prodrug, forms (e.g., Val-BH4, Val-BH2, and Val-B).
The concentrations of different biopterins (BH4, BH2 and B) and Val-biopterins are determined by initially using reverse phase HPLC for separation, followed by ECD and FL detection. BH4 and Val-BH4 are measured using ECD in which BH4 and Val-BH4 are oxidized by electrode 1 to quinonoid dihydrobiopterin forms (qBH2 or Val-qBH2, respectively), a short-lived dihydrobiopterin intermediate, and then reduced back to BH4 or Val-BH4 at electrode 2. The detector then uses the current generated by this reduction reaction to determine the concentration of BH4 or Val-BH4, respectively. BH2, Val-BH2, B and Val-B are measured by fluorescence detection. […] This is desirable because BH2 is not fluorescently active or easily measured and must be converted to biopterin, which is easily measured using fluorescence. […] In one embodiment, the biopterin analogs, such as valine biopterin derivatives, are measured using a 10% MeOH-containing mobile phase whereas the biopterins are measured using a 2% MeOH-containing mobile phase.
The compound of Example 5 can be detected in buffer and by extraction using this assay. […]

[2] = system: human umbilical vein endothelial cells (HUVEC); test: Nitric oxide production (nitrite+nitrate) in NAS-treated HUVEC; format: cell-based; settings: 5-22 hours treatment
Procedure: Cultured human umbilical vein endothelial cells (HUVEC) were pretreated with 3 mM N-acetylserotonin (NAS), an inhibitor of the enzyme sepiapterin reductase. Inhibition of this pathway typically results in loss of endogenous BH4, depressing the endogenous eNOS activity far below normal and provides an assay to test for restoration of eNOS activity.
Thus, subconfluent HUVECs were seeded in a 24-well plate and grown overnight in EGM2 medium (full growth medium). The next morning, fresh medium was added to the cells (300 μL/well), 3 mM N-acetylserotonin (NAS), an inhibitor of the enzyme sepiapterin reductase (a member of the synthesis pathway for endogenous BH4) was added to the cells to decrease the endogenous BH4 levels. After an incubation of 1.5 hours, 50, 100, or […] BH4 or compound of Example 5, Example 6, Example 7, or Example 9 were added to the cells. The cells were allowed to react with the BH4 or the compound of Example 5, Example 7, or Example 9 for 5-22 hours. The production of NO was then measured as changes in total (nitrite+nitrate) by the Griess reaction subsequent to nitrate reductase treatment. 90 μL of reaction mixture (25 mM Tris-HCL, pH7.4, 1 μM FAD, 1 μM FMN, 100 μM L-Arginin 2.5 mM CaCl2, 1 mM NADPH, 0.04 mg/ml Calmodulin) was mixed with 5 μl of eNOS (15 units/ml) and 5 μl of BH4 or BH4 analogs (1, 10, 100 μM), followed by incubation in a 37° C. water bath for 90 minutes. Then 100 μl of water and 20 μl of the nitrite fluorescent probe DAN (2,3-diaminonaphthalene, 316 μM) were added to each reaction and incubated at room temperature for 10 minutes. The dye DAN reacts with nitrite to yield the fluorescent product naphthotriazole. The reaction was then stopped by adding 10 μl of NaOH (2.8 M), and the fluorescence of the samples was read using excitation frequency 375 nm and emission frequency 415 nm. The percentage of nitrite+nitrate with BH4 or compound of Example 5, Example 7, or Example 9 is shown in FIG. 17 (after 5 hours); FIG. 18 (after 17 hours); and FIG. 19 (after 22 hours). The results for Example 6 are shown in FIG. 20 (after 5 hours) and FIG. 21 (after 20 hours).

eNOS = eNOS (Homo sapiens, UniProt P29474); test: Cell-free eNOS activity assay reconstituted from purified components; format: biochemical; settings: 1, 10, 100 μM, 90 minutes at 37° C., nitrite by DAN fluorescence
Procedure: Also tested was the effect of BH4 analogs compared to free BH4 on stimulation of eNOS activity in a cell-free assay system reconstituted from purified components. 90 μL of reaction mixture (25 mM Tris-HCL, pH7.4, 1 μM FAD, 1 μM FMN, 100 μM L-Arginine, 2.5 mM CaCl2, 1 mM NADPH, 0.04 mg/ml Calmodulin) was mixed with 5 μl of eNOS (15 units/ml) and 5 μl of BH4 or BH4 analogs (1, 10, 100 μM), followed by incubation in a 37° C. water bath for 90 minutes. Then 100 μl of water and 20 μl of the nitrite fluorescent probe DAN (2,3-diaminonaphthalene, 316 μM) were added to each reaction and incubated at room temperature for 10 minutes. The dye DAN reacts with nitrite to yield the fluorescent product naphthotriazole. The reaction was then stopped by adding 10 μl of NaOH (2.8 M), and the fluorescence of the samples was read using excitation frequency 375 nm and emission frequency 415 nm.

Q: Which results are given for `CC(C)[C@H](N)C(=O)O[C@@H](C)[C@H](O)[C@H]1CNc2nc(N)[nH]c(=O)c2N1` [Example 5, 2-Amino-3-methyl-butyric acid 2-(2-amino-4-oxo-3,4,5,6,7,8-hexahydro-pteridin-6-yl)-2-hydroxy-1-methyl-ethyl ester dihydrochloride]?
A: height of the BH4 peak compared with monkeys administered BH4 [1]: several fold higher; NO production (nitrite+nitrate) [2]: increased NO production in a dose-dependent manner; potentiation of eNOS activity (eNOS): did not significantly potentiate eNOS activity
